# ChEMBL document CHEMBL3988181, “GlaxoSmithKline Published Kinase Inhibitor Set 2 Onchocerca lienalis Screening Data”
# Assay: GSK PKIS2: Screen against O. lienalis microfilariae, single point, at 3.1uM to assess reduction in motility. Compounds were also tested for cytotoxicity against Rhesus Monkey LLCMK2 cells.
# Assay type: functional, Onchocerca lienalis, LLC-MK2
# Details: CELL_LINE LLCMK2; CELL_SUPPLIER ECACC; CONC 3.1 uM; ORGANISM_SUPPLIER Extracted from peri-umbilical skin obtained from naturally infected cattle in the UK; temperature 37 degree C
row,SMILES,MOTILITY REDUCTION/CYTOTOXICITY
1,CCn1c(-c2nonc2N)nc2c(C#CC(C)(C)O)nc(OCCN)cc21,0%
2,O=C(Nc1c(F)cccc1F)c1cc(C(=O)c2ccccc2F)c[nH]1,0%
3,C[C@@H](Oc1cc(-n2cnc3cc(-c4ccnc(NCCS(C)(=O)=O)c4)ccc32)sc1C(N)=O)c1ccccc1Cl,53.4%
4,C[C@@H](Oc1cc(-n2cnc3cc(-c4cnn(C)c4)ccc32)sc1C(N)=O)c1ccccc1Cl,46.7%
5,CC(C)c1nc(-c2cccc(NS(=O)(=O)c3c(F)cccc3F)c2)c(-c2ccnc(Nc3ccc(N4CCOCC4)nc3)n2)s1,0%
6,CC(C)c1nc(-c2ccc(F)c(NS(=O)(=O)c3c(F)cccc3F)c2)c(-c2ccnc(Nc3ccc(N4CCOCC4)nc3)n2)s1,0%
7,Cc1cccc(Nc2nc(N[C@H]3CCNC3)ncc2C(N)=O)c1,26.7%
8,COc1cccc2c(-c3ccncc3)c(-c3ccc(F)cc3)nn12,66.7%
9,CSc1cccc2c(-c3ccncn3)c(-c3ccc(F)cc3)nn12,33.4%
10,O=c1cc(N2CCOCC2)nc2n(Cc3cccc(F)c3)ccn12,0%
11,Cc1cn2c(=O)cc(N3CCOCC3)nc2n1Cc1cccc(Cl)c1Cl,0%
12,Cc1nn2c(=O)cc(N3CCOCC3)nc2n1Cc1cccc(Cl)c1Cl,0%
13,COc1cc2c(Nc3ccc(NC(=O)c4ccccc4)cc3)ncnc2cc1OCCCN1CCOCC1,0%
14,Clc1ccc(-c2cc(-c3c[nH]nc3-c3ccccn3)ccn2)cc1,0%
15,Cn1cc(-c2ccc3c(c2)CCN3C(=O)Cc2cccc(Cl)c2)c2c(N)ncnc21,0%
16,Nc1ncc(-c2cn[nH]c2)c2scc(-c3ccc4c(c3)CCN4C(=O)Cc3ccccc3)c12,0%
17,Cc1ccccc1CC(=O)N1CCc2cc(-c3cn(C)c4ncnc(N)c34)ccc21,33.4%
18,Nc1n[nH]c2nnc(-c3ccccc3)c(-c3ccccc3)c12,0%
19,CC1=C(C(=O)Nc2cc3cn[nH]c3cc2F)C(c2ccc(C(F)(F)F)cc2)CC(=O)N1 (centres undefined),0%
20,CS(=O)(=O)CCNCc1ccc(-c2ccc3ncnc(Nc4ccc(OCc5ccccc5)c(Cl)c4)c3c2)o1,20%
21,COc1cccc(-c2cc(-c3c[nH]nc3-c3ccccn3)ccn2)c1,0%
22,Cc1ccccc1-c1cc(-c2c[nH]nc2-c2ccccn2)ccn1,0%

row,SMILES,MOTILITY REDUCTION/CYTOTOXICITY
1,Cc1c(Cn2c(C)nn3c(=O)cc(N4CCO[C@H](C)C4)nc23)cccc1C(F)(F)F,0%
2,COc1ccc(NC(=O)c2ccc(-c3cc(-c4nnc(C)o4)ccc3C)cc2)cc1,33.4%
3,N#Cc1ccc(-c2cc(-c3c[nH]nc3-c3ccccn3)ccn2)cc1,0%
4,NCC(C(=O)Nc1cc(Br)c(-c2ccnc3[nH]ccc23)s1)c1ccccc1 (centres undefined),0%
5,CCn1c(-c2nonc2N)nc2c(C#CC(C)(C)O)ncc(OCCCCN)c21,13.4%
6,CCCCc1nn2ncccc2c1-c1ccnc(Nc2ccc(N3CCN(C)CC3)cc2)n1,13.4%
7,NC(=O)c1sc(-n2cnc3ccccc32)cc1OCc1ccccc1F,20%
8,COc1cc2ncn(-c3cc(OCCCc4ccccc4)c(C(N)=O)s3)c2cc1OC,33.4%
9,CN(C)CCNS(=O)(=O)c1ccc(-c2ccnc3[nH]ccc23)cc1,26.7%
10,COc1ccc(C[C@@H](CN)NC(=O)c2cc(Br)c(-c3ccnc4[nH]ccc34)s2)cc1,33.4%
11,O=C(NCCNc1ccnc(NCc2ccc(F)cc2)n1)c1cc2ccccc2s1,0%
12,c1ccc(Oc2ccc(Nc3ccnc4cc(-c5ccc(CN6CCCCC6)o5)ccc34)cc2)nc1,20%
13,Cc1cc(-c2ccc3c(c2)CC[C@@H](N[C@@H](C)c2ccccc2)C3)cnc1N,33.4%
14,Cn1cncc1-c1ccc2ncnc(Nc3ccc(OCc4ccccc4)cc3)c2c1,0%
15,COc1cc(Nc2ccnc3cc(-c4ccncc4)ccc23)cc(OC)c1OC,33.4%
16,CC(C)S(=O)(=O)N1CCN(Cc2ccc3c(c2)nc(NC(=O)c2ccsc2)n3C[C@H](O)c2ccccc2)CC1,0%
17,Cc1c(O)cccc1Nc1ccnc2ccc(C(F)(F)F)cc12,40%
18,COc1ccc(Nc2nccc(N3CCC(NC(=O)Nc4cccc(C(C)=O)c4)C3)n2)cc1 (centres undefined),0%
19,O=C(Nc1ccccc1F)NC1CCN(c2ccnc(Nc3ccc(F)cc3)n2)C1 (centres undefined),0%
20,Oc1cc(Nc2ccnc3cc(I)ccc23)ccc1F,33.4%
21,NC(=O)c1cccc(Nc2nccc(Nc3ccc(Oc4cccc(Cl)c4)c(Cl)c3)n2)c1,20%
22,COc1ccc2nc(-c3cccc(C)n3)nc(Nc3ccncc3)c2c1,0%

row,SMILES,MOTILITY REDUCTION/CYTOTOXICITY
1,COc1ccc(Nc2nccc(N3CCC(NC(=O)Nc4cccc(OC)c4)C3)n2)cc1 (centres undefined),0%
2,CCCc1ccc(S(=O)(=O)NC2CCN(c3ccnc(Nc4ccc(F)cc4)n3)C2)cc1 (centres undefined),0%
3,COC(=O)c1cccc(NC(=O)NC2CCN(c3ccnc(NCc4ccc(F)cc4)n3)CC2)c1,20%
4,COc1cc(Nc2ccnc3ccc(C(F)(F)F)cc23)cc(OC)c1OC,0%
5,c1ccc(Oc2ccc(Nc3ccnc4ccc(-c5ccccn5)cc34)cc2)cc1,0%
6,Cc1ccc(F)c(C(=O)Nc2cccc(-c3nn4ccccc4c3-c3ccnc(Nc4cccc(F)c4)n3)c2)c1F,0%
7,Cc1ccc(NC(=O)Nc2ccc(Cl)c(C(F)(F)F)c2)cc1-c1ccc(C(=O)Nc2ccncc2)cc1,40%
8,COc1cc(Nc2nccc(N3CCC(NC(=O)c4cc5ccccc5s4)C3)n2)cc(OC)c1OC (centres undefined),0%
9,COc1ccc(Nc2nccc(N3CCC(NC(=O)Nc4ccc5c(c4)OCO5)C3)n2)cc1 (centres undefined),20%
10,NC[C@H](CC1CCCCC1)NC(=O)c1ccc(-c2ccnc3[nH]ccc23)s1,66.7%
11,Cc1cc(-c2ccnc(Nc3cccc(C#N)c3)n2)cc(C)c1O,0%
12,COc1ccc(Nc2nccc(N3CCC(NC(=O)c4cccc(C#N)c4)C3)n2)cc1 (centres undefined),0%
13,COc1cc(Nc2nccc(N3CCC(NS(=O)(=O)c4ccc(NC(C)=O)cc4)CC3)n2)cc(OC)c1OC,33.4%
14,Cc1ccc(C(=O)Nc2ccc(Nc3ccnc4cc(-c5nccs5)ccc34)cc2O)cc1,0%
15,COc1cc(Nc2nccc(-c3c(-c4cccc(NC(=O)c5c(F)cccc5F)c4)nn4ccccc34)n2)cc(OC)c1OC,20%
16,Cc1ccc(Nc2ccnc(Nc3ccc(C)c(F)c3)n2)cc1O,33.4%
17,Cc1cc(N2CCC(NS(=O)(=O)c3ccc(F)cc3)CC2)nc(Nc2cccc(C#N)c2)n1,0%
18,COc1cc2c(Nc3cccc(NC(=O)c4ccccc4)c3)ncnc2cc1OCCCN1CCOCC1,0%
19,CN(C)Cc1ccc(-c2ccc3c(Nc4ccc(Oc5ccccn5)cc4)ccnc3c2)o1,0%
20,Cc1occc1-c1ncc(OC[C@@H](N)Cc2c[nH]c3ccccc23)cc1-c1ccc2[nH]nc(C)c2c1,0%
